According to patent publication US20120005765A1, “ANIMAL MODEL FOR PARKINSON'S DISEASE” (Saint Louis University, priority 2010, published 2012):

Tests used:
Substantia Nigra Neurons = test: Unbiased stereology of substantia nigra neurons after DOPAL injection; type: in vivo; set-up: TOTAL SNpc Neurons / TOTAL SNr Neurons / TH SNpc Neurons: dose or concentration left out as unconfirmed
Description: Neuropathological Evaluation: Stereology The SN was included in 8-10 sections of all cases counted, and its total length was approximately 1.25 mm. Mean volume of the SNpc of control rats was […], while that of the SNpr was 777,696,500 m^3. Mean volume of the SNpc in the DOPAL injected rats was 264,674,833 m^3 while that of the SNpr was 760,212,500 m^3. There was no significant difference in mean volumes of SNpc or SNpr between controls and DOPAL injected rats. The inventors first counted TH immunoreactive neurons in the SNpc on the side of the DOPAL injection and compared them to those on the non-injected side. […] However, the inventors noted that numerous SNpc neurons sometimes were not stained for TH despite robust labeling of others (FIG. 3F). Thus, the inventors compared the number of Nissl stained profiles in sections immunostained with a-syn rather than TH in the SNpc's ipsilateral to the DOPAL injections to those of control rats which had received injections of a buffered saline solution into their SN's (Table 3). […] The inventors then determined whether DOPAL was toxic to neurons in the subjacent pars reticulata of the SN. The number of neurons in the SNpr of the DOPAL-injected rats was not different from the saline-injected rats (Table 3; FIG. 4C).
The effect of DOPAL injections into the substantia nigra on neurons in either the pars compacta (SNpc) or the pars reticularis (SNpr) are shown. Control animals were injected with buffered saline while experimental animals were injected with DOPAL (4 mg/800 nl). Unbiased stereology was used to assess the number of neurons (see Methods). Means (SD); n.s.=not significant.

[1] = tested on: dopaminergic neurons in the substantia nigra; test: Tyrosine hydroxylase immunohistochemistry and densitometry after DOPAL injection into substantia nigra; type: in vivo, rat
Procedure: Immunohistochemistry. Eighteen hours (two rats) or 5 days following the surgery the rats were anesthetized and perfused through the left ventricle of the heart with 0.1 M phosphate buffer containing 4% paraformaldehyde. The brains were removed, post-fixed for at least 4 h, sunk in 25% sucrose, and sectioned frozen at 50 pm with a sliding microtome. Adjacent series of sections were subjected to a conventional immunoperoxidase protocol using antibodies against tyrosine hydroxylase (TH; Sigma, monoclonal, made in […], used at a dilution of 1:6000), neuronal nuclear antigen (NeuN, Chemicon, Temecula, Calif., USA, made in rabbit, used at 1:20,000) or glial fibrillary acidic protein (GFAP, made in rabbit, used at 1:5000). Briefly, the sections were immersed overnight in 0.1 M Sorenson's phosphate buffer (SPB, pH 7.4) containing 0.2% Triton X-100 (SPB/Triton) and primary antibody with agitation. The following morning they were thrice rinsed in SPB/Triton and immersed for 1 h in SPB/Triton containing biotinylated secondary antibodies against the host species of the primary antibodies, used at a dilution of 1:200. The sections were again thrice rinsed in SPB/Triton and then immersed in SPB/Triton containing ABC reagents (Vector, Burlingame, Calif., USA) used at a dilution of 1:200. After further rinsing in SPB the sections were reacted with 3,3-diaminobenzidine (DAB) and hydrogen peroxide to produce an insoluble brown reaction product that was further intensified with osmium and thiocarbohydrazide as has been described. All immersions and rinses were done at room temperature. In addition, a series of sections from many of the brains was mounted and processed for Nissl staining using a standard cresyl violet staining procedure. […]
Determination of DOPAL-induced Parkinson's disease-like behavior Injections of DOPAL or ALDH1A1 antisense oligo into rat SN. […] After 5-7 weeks, rats were injected with apomorphine (0.4 mg/kg, subcutaneously) and rotational asymmetry determined in each group just prior to sacrifice. […]

O=CCc1ccc(O)c(O)c1 [DOPAL, 3,4-dihydroxyphenylacetaldehyde]
TOTAL SNpc Neurons (Substantia Nigra Neurons; DOPAL into substantia nigra, Means (SD), control 11926 (1084)): 6879 (422) | TH SNpc Neurons (Substantia Nigra Neurons; DOPAL into substantia nigra, Means (SD), control 11969 (3699)): 5884 (1365) | TOTAL SNr Neurons (Substantia Nigra Neurons; DOPAL into substantia nigra, Means (SD), control 12422 (832)): 11761 (715) | number of Nissl-stained neurons in the SNpc, less than saline-injected rats (Substantia Nigra Neurons; p=0.001): 43% | mean number of TH immunoreactive SNpc neurons ipsilateral, less than contralateral non-injected side (Substantia Nigra Neurons; p=0.032): 50% | number of neurons in the SNpr vs saline-injected rats (Substantia Nigra Neurons; rat, in vivo): not different | immunoreactivity of TH in the SN ipsilateral to injection ([1]; vs contralateral non-injected side): decrease | reduction in TH immunoreactivity in the striatum ipsilateral to injection ([1]; vs contralateral non-injected side, background subtracted): 28% | loss of TH immunoreactivity by spot density, ventrolateral striatum ipsilateral to injection ([1]; vs contralateral side): 80%
